Laboratory results: article PMC11943723, “Synthesis and Biological Activity of Glycosyl Thiazolyl Disulfides Based on Thiacarpine, an Analogue of the Cytotoxic Alkaloid Polycarpine from the Ascidian Polycarpa aurata” (Marine Drugs, 2025)
≈ marks a conversion by molar mass, not a printed value. Read-outs that look alike come from different tables or passages of the source.

What was measured:
[1] = test system: Escherichia coli (VKPM B-7935); assay: Antimicrobial activity, inhibition of microbial growth (optical density); type: cell-based; settings: Escherichia coli; 18 h, OD 620 nm; read-out: Inhibition of Microbial Growth MIC50, E. coli
Procedure: (§1) The antimicrobial activity of the compounds was determined against Gram-positive bacteria Staphylococcus aureus (ATCC 21027), Gram-negative bacteria Escherichia coli (VKPM B-7935), and yeast-like fungi Candida albicans (KMM 455) (all test strains were obtained from the Collection of Marine Microorganisms KMM PIBOC FEB RAS) in liquid nutrient media. Test cultures of S. aureus, E. coli, and C. albicans were grown in Petri dishes on a solid nutrient medium (Mueller–Hinton broth with the addition of agar—16.0 g/L) at 37 °C for 24 h. The antimicrobial activity of the compounds was determined by the change in optical density and expressed as the percentage of bacterial inhibition at different concentrations of substances added to the well of the microorganism suspension, compared to the control. The compounds were dissolved in dimethyl sulfoxide (DMSO) at a concentration of 10 mM and stored at −20 °C. Before the experiment, the solution of substances in DMSO was diluted with PBS at a concentration of 0.5–100.0 µM and added to the wells so that the concentration of DMSO in the culture medium was less than 1%. Antimicrobial activity was determined in 96-well microplates in a liquid Mueller–Hinton nutrient medium. For S. aureus, E. coli, and C. albicans, a bacterial suspension of 10^6 CFU in 1 mL of the media was used, 90 μL was added to each well of the microplates and then incubated in a thermostatted shaker at 37 °C for 18 h. Inhibition of microorganism growth was assessed by measuring the optical density at 620 nm using a microplate reader (Thermo Fisher Scientific, Waltham, MA, USA) after preliminary shaking of the plates for 10 min. All experiments were performed in triplicate. Gentamicin (S. aureus and E. coli) and nitrofungin (C. albicans) were used as positive controls, and 1% DMSO in PBS was used as a negative control.

[2] = test system: Candida albicans (KMM 455); assay: as above; type: cell-based; settings: Candida albicans, KMM455; 18 h, OD 620 nm; read-out: Inhibition of Microbial Growth MIC50, C. albicans
Procedure: as §1

[3] = test system: Staphylococcus aureus (ATCC 21027); assay: as above; type: cell-based; settings: Staphylococcus aureus, ATCC21027; 18 h, OD 620 nm; read-out: Inhibition of Microbial Growth MIC50, S. aureus
Procedure: as §1

[4] = test system: Hep G2 (hepatocellular carcinoma); assay: MTT cell viability assay, Hep G2; type: cell-based; settings: Homo sapiens, HepG2, 24 h incubation, read-out: Cytotoxicity EC50, Hep G2
Text: (§2) Human erythrocytes were purchased from the blood transfusion station Vladivostok. Human breast cancer cell lines MCF-7^HTB−22, and MDA-MB-231^CRM-HTB−26, liver hepatocellular carcinoma Hep G2^HB−8065, prostate adenocarcinoma PC-3^CRL−1435, cervical adenocarcinoma HeLa^CRM-CCL−2, and normal bronchial epithelial cells BEAS-2B ^CRL−3588 were received from ATCC (Manassas, VA, USA).
(§3) DMEM medium (Biolot, Russia) with 1% penicillin/streptomycin and 10% fetal bovine serum (FBS) (Biolot, Russia) was used for cultivation of Hep G2, PC-3, HeLa, and Beas-2b. MEM medium (Biolot, Russia) with 1% penicillin/streptomycin sulfate (Biolot, Russia) and FBS (Biolot, Russia) to a final concentration of 10% for MCF-7 and MDA-MB-231 cells.
(§4) The effect of the studied compounds on the viability of human cancer and normal cells was determined using the MTT (3-[4,5-dimethylthiazol-2-yl]-2,5 diphenyl tetrazolium bromide) assay. Briefly, 6 × 10^3 cells per well were seeded into 96-well plates and incubated for 24 h for adhesion, followed by incubation for 24 h with different concentrations of the substances. After incubation, the medium containing the test substances was replaced with 100 µL of fresh medium. Then, 10 μL of MTT (Sigma-Aldrich, Madison, WI, USA) reagent (5 mg/mL MTT in PBS) was added into the cells and the plates for additional 4 h. Thereafter, 100 µL of SDS-HCl solution (1 g SDS/10 mL dH2O/17 µL 6N HCl) was added to each well and incubated for 18 h. The absorbance of the converted formazan dye was measured using a Multiskan FC microplate photometer (Thermo Scientific, Waltham, MA, USA) at a wavelength of 570 nm. All experiments were performed in triplicate. Cytotoxic activity was expressed as a percentage of the cell viability.

[5] = MTT cell viability assay, BEAS-2B normal cells; type: cell-based; settings: human, BEAS-2B normal bronchial epithelial cells, 24 h incubation, read-out: Cytotoxicity EC50, BEAS 2B
Text: as §2, §3, §4

[6] = test system: LLC; settings: injected intraperitoneally; cited from earlier work
[7] = test system: melanoma B-16; settings: injected intraperitoneally; cited from earlier work
[8] = test system: HeLa (cervical cancer); assay: MTT cell viability assay, HeLa; type: cell-based, human; settings: 24 h incubation, read-out: Cytotoxicity EC50, HeLa
Text: as §2, §3, §4

[9] = test system: MDA-MB-231 (triple-negative breast cancer); assay: MTT cell viability assay, MDA-MB-231; type: cell-based, human; settings: 24 h incubation, read-out: Cytotoxicity EC50, MDA-MB-231 (TNBC)
Text: as §2, §3, §4

[10] = test system: HeLa cells; assay: Colony formation (clonogenic) assay; type: cell-based; settings: Homo sapiens, 336 h, 10 µM, 14 days
Procedure: The effect of the test compounds on HeLa cell proliferation was analyzed using a clonogenic assay. Briefly, HeLa cells were cultured in 6-well plates at a density of 1 × 10^2 cells per well, and compounds were added at concentrations of 5 or 10 μM. Untreated culture medium was used as a control. […] Before fixation and staining, the medium was removed and the cells were washed twice with PBS. The colonies were then fixed with methanol for 25 min and stained with 0.5% crystal violet for 25 min at room temperature. The plates were then washed with water and air-dried.

[11] = test system: Human erythrocytes; assay: Hemolytic activity (destruction of erythrocyte membranes); type: cell-based
Text: as §2

[12] = test system: Escherichia coli (VKPM B-7935); assay: Inhibition of biofilm formation (MTT); type: cell-based; settings: 24 h
Procedure: (§5) Biofilm formation was performed according to the method described by Walencka et al., with minor modifications. The compounds were dissolved in dimethyl sulfoxide (DMSO) at a concentration of 10 mM and stored at −20 °C. Before the experiment, the solution of substances in DMSO was diluted with PBS at a concentration of 0.5–100.0 µM and added to the wells so that the concentration of DMSO in the culture medium was less than 1%. Biofilm formation was assessed in 96-well microplates in a liquid Mueller–Hinton nutrient medium. For S. aureus, E. coli, and C. albicans, a bacterial suspension of 10^6 CFU in 1 mL of medium was used, 90 μL was added to each well of the microplates and then incubated in a thermostatted shaker at 37 °C for 24 h. After incubation, the suspension of planktonic microorganisms was removed from the plate and washed with PBS. Next, 100 μL of PBS and 10 μL of MTT (3-(4,5-dimethylthiazol-2-yl)-2,5-diphenyltetrazolium bromide, MTT reagent, Sigma) stock solution (5 mg/mL) were added to the wells and incubated for 3 h at 37 °C. After incubation, all the solution was removed from the wells, 100 μL of DMSO was added, and the plate was shaken for 10 min until all formazan crystals had dissolved. The absorption was measured using a plate reader (Thermo Fisher Scientific, Waltham, MA, USA) at a wavelength of 570 nm. The activity of the substances was assessed by the change in optical density compared with that of the control. All experiments were performed in triplicate. Gentamicin (S. aureus and E. coli) and nitrofungin (C. albicans) were used as positive controls, and 1% DMSO in PBS was used as a negative control.

[13] = test system: Staphylococcus aureus (ATCC 21027); assay: Inhibition of biofilm formation (MTT); type: cell-based; settings: 24 h
Procedure: as §5

[14] = test system: HeLa cells; assay: Wound scratch migration assay; type: cell-based; settings: Homo sapiens, 24 h, read-out: Migration inhibition effect
Procedure: To analyze the effect of the tested compounds on the migration of HeLa tumor cells, special migration inserts (Culture-insert 2 Well 24, ibiTreat, Martinsried, Germany) were used, which left a gap of 500 ± 50 μm (according to the manufacturer’s data) between the cells attached to the plate. HeLa cells at a concentration of 5 × 10^5 were added to each well of the migration insert for 24 h, the insert was removed, and the cells were washed twice with PBS to remove cell debris and floating cells and loaded with the fluorescent probe CFDA-SE (Lumiprobe, Moscow, Russia) at a concentration of 10 µM for 5 min. The cells were treated with different concentrations of the studied compounds for 0 and 24 h. Cells treated with culture medium alone were used as vehicle controls. Cell migration in the wound area was observed under a fluorescence microscope (MIB-2-FL, LOMO, St. Petersburg, Russia) with a 10× objective.

[15] = test system: Candida albicans (KMM 455); assay: Inhibition of biofilm formation (MTT); type: cell-based; settings: 24 h
Procedure: as §5

[16] = in vivo experiments; cited from earlier work

COc1ccc(-c2nc(N)sc2SSc2sc(N)nc2-c2ccc(OC)cc2)cc1 [Compound 1a]
MIC50 [1]: > 50 µM | MIC50 [2]: 38.2 ± 3.2 µM (≈ 18.1 µg/mL) | MIC50 [3]: 10.3 ± 1.1 µM (≈ 4.89 µg/mL) | EC50 [4]: > 25 µM | EC50 at 24 h [5]: > 25 µM | Inhibition of development of solid tumor LLC [6]: effectively inhibited | Inhibition of development of solid tumor melanoma B-16 [7]: effectively inhibited | EC50 ([8]; Homo sapiens, HeLa, 24 h): > 25 µM | EC50 ([9]; Homo sapiens, MDA-MB-231, 24 h): 21.4 µM

CC(=O)OC[C@H]1O[C@@H](SSc2sc(N)nc2-c2ccc(Br)cc2)[C@H](OC(C)=O)[C@@H](OC(C)=O)[C@@H]1OC(C)=O [Compound 4c, 5-[(2,3,4,6-Tetra-O-acetyl-β-D-glucopyranosyl)disulfanyl]-2-amino-4-(4-bromophenyl)thiazole]
inhibition at 10 µM [10]: 76% | MIC50 [1]: 6.9 ± 0.5 µM (≈ 4.48 µg/mL) | MIC50 [2]: 7.1 ± 0.7 µM (≈ 4.61 µg/mL) | MIC50 [3]: 2.3 ± 0.3 µM (≈ 1.49 µg/mL) | EC50 [4]: 24.3 µM | Hemolytic activity, erythrocytes [11]: > 25 µM | EC50 at 24 h [5]: 15.5 µM | Inhibition of Biofilm Formation MIC50, E. coli [12]: 8.04 µM | Inhibition of Biofilm Formation MIC50, S. aureus [13]: 7.94 µM | EC50 ([8]; Homo sapiens, HeLa, 24 h): 19.4 µM | EC50 ([9]; Homo sapiens, MDA-MB-231, 24 h): 21.7 µM

CC(=O)OC[C@H]1O[C@@H](SSc2sc(N)nc2-c2ccc(C)cc2)[C@H](OC(C)=O)[C@@H](OC(C)=O)[C@@H]1OC(C)=O [Compound 4e, 5-[(2,3,4,6-Tetra-O-acetyl-β-D-glucopyranosyl)disulfanyl]-2-amino-4-(p-tolyl)thiazole]
inhibition at 10 µM [14]: ~43% | MIC50 [1]: > 50 µM | MIC50 [2]: 17.7 ± 0.3 µM (≈ 10.3 µg/mL) | MIC50 [3]: > 50 µM | EC50 [4]: > 25 µM | EC50 at 24 h [5]: > 25 µM | EC50 [8]: 18.5 µM | EC50 ([8]; Homo sapiens, HeLa, 24 h): 18.5 µM | EC50 [9]: 15 µM | EC50 ([9]; Homo sapiens, MDA-MB-231, 24 h): 15 µM

CC(=O)O[C@@H]1[C@@H](OC(C)=O)[C@H](SSc2sc(N)nc2-c2ccc(Br)cc2)OC[C@H]1OC(C)=O [Compound 4h, 5-[(2,3,4-Tri-O-acetyl-β-D-xylopyranosyl)disulfanyl]-2-amino-4-(4-bromophenyl)thiazole]
inhibition at 10 µM [14]: ~43% | MIC50 [1]: 5.8 ± 0.4 µM (≈ 3.35 µg/mL) | MIC50 [2]: 4.3 ± 0.5 µM (≈ 2.48 µg/mL) | MIC50 [3]: 2.4 ± 0.2 µM (≈ 1.39 µg/mL) | EC50 [4]: 24.6 µM | Hemolytic activity, erythrocytes [11]: > 25 µM | EC50 at 24 h [5]: 19.9 µM | Inhibition of Biofilm Formation MIC50, C. albicans [15]: 7.11 µM | Inhibition of Biofilm Formation MIC50, S. aureus [13]: 6.32 µM | EC50 ([8]; Homo sapiens, HeLa, 24 h): 21.3 µM | EC50 ([9]; Homo sapiens, MDA-MB-231, 24 h): 21.1 µM

CC(=O)O[C@@H]1[C@@H](OC(C)=O)[C@H](SSc2sc(N)nc2-c2ccc(Cl)cc2)OC[C@H]1OC(C)=O [Compound 4i, 5-[(2,3,4-Tri-O-acetyl-β-D-xylopyranosyl)disulfanyl]-2-amino-4-(4-chlorophenyl)thiazole]
MIC50 [1]: 8.7 ± 0.9 µM (≈ 4.64 µg/mL) | MIC50 [2]: 2.8 ± 0.3 µM (≈ 1.49 µg/mL) | MIC50 [3]: 3.1 ± 0.3 µM (≈ 1.65 µg/mL) | EC50 [4]: > 25 µM | Hemolytic activity, erythrocytes [11]: > 25 µM | EC50 at 24 h [5]: > 25 µM | Inhibition of Biofilm Formation MIC50, C. albicans [15]: 4.08 µM | Inhibition of Biofilm Formation MIC50, S. aureus [13]: 6.25 µM | EC50 ([8]; Homo sapiens, HeLa, 24 h): > 25 µM | EC50 ([9]; Homo sapiens, MDA-MB-231, 24 h): > 25 µM

COc1ccc(-c2nc(N)n(C)c2SSc2c(-c3ccc(OC)cc3)nc(N)n2C)cc1 [polycarpine]
Acute toxicity in vivo [16]: acute toxicity
